2 compounds from article PMC4413193, “3-[4-(1H-Indol-3-yl)-1,3-thiazol-2-yl]-1H-pyrrolo[2,3-b]pyridines, Nortopsentin Analogues with Antiproliferative Activity” (Marine Drugs, 2015) can be followed below.

Usually GI50 stands for the concentration at which growth is held to half of that of the control. A higher GI50 goes with less potent growth inhibition.

SMILES strings stand for the structures. Entries after “also recorded” stand apart in the source; their conditions may differ.

One data set concerns K-562. The data set can be described thus: NCI-60 in vitro tumor cell growth inhibition, K-562 (leukemia). The settings on record: Homo sapiens, K562, five concentration levels 10^−4–10^−8 M. The format is cell-based. As for the experimental part: (§1) All the synthesized thiazoles 3a–k were evaluated by the National Cancer Institute (Bethesda MD) for cytotoxicity against the NCI-60 cell line panel using standard protocols. Initially, the selected derivatives 3c,d,g,h,j,k were tested at a single dose (10^−5 M) on the full panel of approximately 60 human tumor cell lines derived from 9 human cancer cell types, that have been grouped in disease sub-panels including leukemia, non-small-cell lung, colon, central nervous system (CNS), melanoma, ovarian, renal, prostate and breast cancers (data not shown). Compounds 3d and 3k were further selected for full evaluation at five concentration levels (10^−4–10^−8 M).
(§2) The antitumor activity of compounds 3d and 3k was given by three parameters for each cell line: GI50 (the molar concentration of the compound that inhibits 50% net cell growth), TGI (the molar concentration of the compound leading to total inhibition of net cell growth), and LC50 (the molar concentration of the compound that induces 50% net cell death). The average values of mean graph midpoint (MG_MID) were calculated for each of these parameters.

The test system of a further data set is RPMI-8226. The data set can be described thus: NCI-60 in vitro tumor cell growth inhibition, RPMI-8226 (leukemia). Type of data set: cell-based. Particulars: Homo sapiens, five concentration levels 10^−4–10^−8 M. As for the experimental part: as §1, §2
In a further data set the test system is A549/ATCC. The data set can be described thus: NCI-60 in vitro tumor cell growth inhibition, A549/ATCC (non-small cell lung cancer). Type of data set: cell-based. Particulars: Homo sapiens, five concentration levels. As for the experimental part:
as §1, §2

For a further data set, the system named is NCI-H522. The data set can be described thus: NCI-60 in vitro tumor cell growth inhibition, NCI-H522 (non-small cell lung cancer). Type of data set: cell-based. The settings on record: Homo sapiens, five concentration levels. As for the experimental part: as §1, §2
The subject of the next data set is HCC-2998. In words: NCI-60 in vitro tumor cell growth inhibition, HCC-2998 (colon cancer). The format is cell-based. The settings on record: Homo sapiens, five concentration levels. As for the experimental part: as §1, §2
A further data set relates to U251. In words: NCI-60 in vitro tumor cell growth inhibition, U251 (CNS cancer). The format is cell-based. Particulars: Homo sapiens, U-251, five concentration levels. As for the experimental part:
as §1, §2

Another data set deals with LOX IMVI. In words: NCI-60 in vitro tumor cell growth inhibition, LOX IMVI (melanoma). Type of data set: cell-based. Particulars: Homo sapiens, five concentration levels. Here is the method: as §1, §2
For another data set, the system named is IGROV1. The data set can be described thus: NCI-60 in vitro tumor cell growth inhibition, IGROV1 (ovarian cancer). Type of data set: cell-based. The settings on record: Homo sapiens, IGROV-1, five concentration levels. Here is the method:
as §1, §2

In the next data set the test system is OVCAR-8. In words: NCI-60 in vitro tumor cell growth inhibition, OVCAR-8 (ovarian cancer). The format is cell-based. The settings on record: Homo sapiens, five concentration levels. Here is the method:
as §1, §2

The test system of the next data set is 786-0. The data set can be described thus: NCI-60 in vitro tumor cell growth inhibition, 786-0 (renal cancer). The format is cell-based. The settings on record: Homo sapiens, five concentration levels. Here is the method:
as §1, §2

The subject of the next data set is A498. In words: NCI-60 in vitro tumor cell growth inhibition, A498 (renal cancer). The format is cell-based. Particulars: Homo sapiens, five concentration levels. Here is the method:
as §1, §2

A further data set concerns ACHN. The data set can be described thus: NCI-60 in vitro tumor cell growth inhibition, ACHN (renal cancer). The format is cell-based. The settings on record: Homo sapiens, five concentration levels. Here is the method:
as §1, §2

The test system of the next data set is CAKI-1. In words: NCI-60 in vitro tumor cell growth inhibition, CAKI-1 (renal cancer). The settings on record: Homo sapiens, five concentration levels. The format is cell-based. As for the experimental part: as §1, §2
A further data set has as its system PC-3. In words: NCI-60 in vitro tumor cell growth inhibition, PC-3 (prostate cancer). Type of data set: cell-based. The settings on record: Homo sapiens, five concentration levels. As for the experimental part:
as §1, §2

In another data set the test system is MDA-MB-231/ATCC. The data set can be described thus: NCI-60 in vitro tumor cell growth inhibition, MDA-MB-231/ATCC (breast cancer). The format is cell-based. Particulars: Homo sapiens, five concentration levels. Here is the method:
as §1, §2

A further data set deals with BT-549. In words: NCI-60 in vitro tumor cell growth inhibition, BT-549 (breast cancer). Type of data set: cell-based. The settings on record: Homo sapiens, five concentration levels. Here is the method:
as §1, §2

In the next data set the test system is MDA-MB-468. The data set can be described thus: NCI-60 in vitro tumor cell growth inhibition, MDA-MB-468 (breast cancer). Type of data set: cell-based. Particulars: Homo sapiens, five concentration levels. Here is the method:
as §1, §2

The test system of data set [1] is normal immortalized human liver cells (Chang). In words: MTT viability assay, Chang liver cells. Type of data set: cell-based. The settings on record: identical conditions to HepG2 (72 h, 0.1–10 μM). As for the experimental part: Cell growth inhibitory activity of compounds 3d and 3k was also investigated on human HepG2 hepatocarcinoma cells, a cell line not included in the NCI panel and of interest in the drug discovery because provided with a very active microsomal system for detoxification of xenobiotics. Monolayer cultures treated for 72 h with 0.1–10 μM concentrations of the compounds were examined by 3-(4,5-dimethylthiazol-2-yl)-2,5-diphenyltetrazolium bromide (MTT) assay for cell growth. […] Human cell lines of hepatoma HepG2 and Chang liver were purchased from American Type Culture Collection, Rockville, MD, USA. Cells were grown in RPMI supplemented with 2 mM L-glutamine, 10% FBS, 100 U/mL penicillin, 100 μg/mL streptomycin and 5 μg/mL gentamicin. HepG2 culture medium also contained 1.0 mM sodium pyruvate. Cells were maintained in log phase by seeding twice a week at a density of 3 × 10^8 cells/L in humidified 5% CO2 atmosphere, at 37 °C. In all experiments, cells were made quiescent through overnight incubation before the treatment with the compounds or vehicle alone (control cells). No differences were found between cells treated with DMSO 0.1% and untreated cells in terms of cell number and viability. […] Briefly, HepG2 and Chang cells were plated at 5 × 10^4 cells/well in 96-well plates containing 200 μL RPMI. […] The absorbance at 540 nm was measured in a microplate reader (Bio-RAD, Hercules, CA, USA). […]
On the technique in general: Tetrazolium assays rely on reduction of a dye to a coloured formazan, in cell work by metabolically active cells.

The subject of data set [2] is HepG2 cells. The data set can be described thus: Phosphatidylserine exposure, Annexin V-FITC/PI flow cytometry. The format is cell-based, human. Particulars: HepG2, 24 h, at GI50 values. Here is the method: Apoptosis induction by 3d and 3k in HepG2 cells was investigated by externalization of plasma membrane phosphatidylserine and changes of mitochondrial transmembrane potential.
The apoptosis-induced PS externalization to the cell surface was measured by flow cytometry by double staining with Annexin V-Fluorescein isothiocyanate (Annexin V-FITC)/propidium iodide (PI). Annexin V binding to phosphatidylserine is used to identify the earliest stage of apoptosis. […] HepG2 cells were seeded in triplicate in 24-wells culture plates at a density of 2.0 × 10^5 cells/cm^2. After an overnight incubation, cells were washed with fresh medium and incubated with the compounds in RPMI. After 24 h, cells were harvested by trypsinization and adjusted at 2.0 × 10^5 cells/mL with combining buffer. One hundred μL of cell suspended solution was added to a new tube, and incubated with 5 µL annexin V and 10 μL of a 20 μg/mL PI solution at room temperature in the dark for 15 min. Then at least 1.0 × 10^4 cells were immediately subjected to FACS analysis using appropriate 2-bidimensional gating method.
A general note: A flow cytometer gives signals particle by particle.

In data set [3] the test system is HepG2 cells. The data set can be described thus: Intracellular reactive oxygen species, DCFH flow cytometry. Type of data set: cell-based, human. Particulars: HepG2, 24 h treatment. Here is the method:
Involvement of mitochondria in apoptosis induced in HepG2 cells by the synthesized nortopsentin analogues, was assessed. Loss of mitochondrial trans-membrane potential was indicated by decreased mitochondrial 3,30-dihexyloxacarbocyanine iodide-red fluorescence (Figure 4A).
ROS level was monitored by measuring fluorescence changes that resulted from intracellular oxidation of 2′,7′-dichlorofluorescin diacetate (DCFH). DCFH, at […] final concentration, was added to the cell medium 30 min before the end of the treatment. The cells were collected by centrifugation for 5 min at 2000 rpm at 4 °C, washed, suspended in PBS and immediately subjected to fluorescence-activated cell sorting analysis. At least 1 × 10^4 cells were analyzed for each sample.

In the case of `Cn1cc(-c2nc(-c3c[nH]c4ccccc34)cs2)c2cccnc21` [Compound 3k, 3-[4-(1H-Indol-3-yl)-1,3-thiazol-2-yl]-1-methyl-1H-pyrrolo[2,3-b]pyridine], the GI50 with K-562 was 120 nM; in the data set on RPMI-8226 it was 650 nM; in the data set with A549/ATCC, 710 nM; in the data set on NCI-H522, 50 nM; in the data set on HCC-2998, 1180 nM; with U251 it was 430 nM. Further, the GI50 in the data set with LOX IMVI was determined as 510 nM; in the data set on IGROV1, 1180 nM; in the data set on OVCAR-8, 820 nM; in the data set on 786-0 it was 720 nM; in the data set with A498, 370 nM; in the data set with ACHN it was 510 nM. The GI50 in the data set with CAKI-1 turned out to be 440 nM; with PC-3, 560 nM; in the data set with MDA-MB-231/ATCC, 1290 nM; in the data set with BT-549 it was 440 nM; in the data set on MDA-MB-468, 230 nM. In addition, the “viability of normal immortalized human liver cells (Chang)” value in data set [1] is reported as “did not affect normal immortalized human liver cells (Chang); also recorded: did not substantially impaired viability”. Besides, in the data set on HepG2 cells [2], the “apoptosis induction, externalized phosphatidylserine” value is “high percentage of cells in early apoptosis”. Besides, the “levels of intracellular ROS” value with HepG2 cells [3] is “significantly higher than cell control”.

For `Cn1cc(-c2csc(-c3cn(C)c4ncccc34)n2)c2ccccc21` [Compound 3d, 1-Methyl-3-[4-(1-methyl-1H-indol-3-yl)-1,3-thiazol-2-yl]-1H-pyrrolo[2,3-b]pyridine], the GI50 in the data set with K-562 turned out to be 70 nM; with RPMI-8226, 450 nM; in the data set with A549/ATCC, 560 nM; in the data set on NCI-H522, 40 nM; with HCC-2998 it was 1130 nM; with U251 it was 410 nM. The GI50 with LOX IMVI was 540 nM; in the data set with IGROV1, 1330 nM; with OVCAR-8 it was 660 nM; with 786-0, 970 nM; with A498, 500 nM; with ACHN, 720 nM. For the same compound, the GI50 in the data set with CAKI-1 is 380 nM; in the data set with PC-3, 460 nM; in the data set on MDA-MB-231/ATCC, 2820 nM; in the data set on BT-549, 470 nM; with MDA-MB-468, 280 nM. Moreover, the “viability of normal immortalized human liver cells (Chang)” value in data set [1] is “did not affect normal immortalized human liver cells (Chang); also recorded: did not substantially impaired viability”. Further, the “apoptosis induction, externalized phosphatidylserine” value with HepG2 cells [2] was “high percentage of cells in early apoptosis”. In addition, in the data set on HepG2 cells [3], the “levels of intracellular ROS” value is recorded as “significantly higher than cell control”.
